Here are results for ten compounds from PMC4747407 (Oncotarget, 2015).

In data set [1] the test system is B16-F10 mouse melanoma isografts. Put plainly: B16-F10 mouse melanoma isograft model, combination with TMZ. It is filed as in vivo. To be noted: E7449 100 mg/kg or TMZ 50 mg/kg, oral once daily. The method, then: All studies were performed according to IACUC approved protocols. The general health of mice was monitored daily.
TMZ combination in B16-F10 isograft model: female C57BL/6 mice were inoculated subcutaneously with B16-F10 cells (2 × 10^5). Following randomization by body weight, drug treatment was initiated 1 day post-inoculation. […] TMZ was administered daily on days 1 to 5 at 50 mg/kg as a single agent or in combination. […] The control group was treated with vehicle (0.5% methyl cellulose in water). E7449 or vehicle was administered first and when dosing of all animals was complete TMZ was administered to animals receiving the combination.

Data set [2] has as its system SW480 cells. Put plainly: Western blot of Wnt/β-catenin pathway proteins in SW480 cells. The format is cell-based, human. To be noted: 10 μmol/L, 24 h. As to the method: (§1) SW480, DLD-1 (Wnt-dependent) or RKO (Wnt-independent) cells were plated in 6-well plates and incubated overnight. Cells were treated with E7449, olaparib or XAV939 and incubated for various time periods prior to processing by SDS PAGE and western blot analysis. […] Following binding of appropriate secondary antibodies labeled with IRDye® (LI-COR), image analysis was performed with Image Studio software for the LI-COR Odyssey system (version 2.1.10).

Data set [3] concerns SW480 cells. Put plainly: Gene expression profiling of Wnt-related genes (TLDA qPCR) in SW480 cells. It is filed as cell-based, human. To be noted: 3 μmol/L (XAV939 also 30 μmol/L), 72 h. As to the method: (§2) Gene expression profiling was performed using a custom designed TaqMan® low density array (TLDA). Total RNA was isolated from cell lines using RNeasy Mini Kit (Qiagen) and from xenograft tumor FFPE tissue using RecoverAll Total Nucleic Acid Isolation (Ambion). Human and mouse, real-time qPCR TLDAs (384-well micro fluidic card) were designed with genes selected based on their involvement in Wnt signalling (see supplementary Tables 2 and 3 for lists of genes on TLDAs). cDNA was generated from total RNA using High Capacity cDNA Reverse Transcription kit (Life Technologies) or SuperScript® VILO™ Master Mix (Life Technologies). 100 ng cDNA was combined with TaqMan® Gene Expression Master Mix (Life Technologies) for the cell lines and TaqMan® Advanced FAST Master Mix (Life Technologies) for the xenograft tissue for each port (in duplicate). TLDAs were run based on recommended cycling times for each master mix. Ct values were calculated and imported into GeneData Analyst for further analysis. To calculate the ΔCts, gene expression was normalized to several housekeeping genes. Relative fold change was calculated by comparison to the DMSO or vehicle-treated controls for each sample. A student's t-test was used to calculate P-values and hierarchical clustering used Manhattan distance and complete linkage plotting of selected significant genes to generate heat maps.

The subject of a further data set is DLD-1 cells. Put plainly: Western blot of Wnt/β-catenin pathway proteins in DLD-1 cells. It is filed as cell-based, human. The settings on record: 24 h. The method, then:
as §1
In general terms: Immunoblotting shows a protein as a band on a membrane.

A further data set deals with TNKS1/2. The arrangement: method as in Wahlberg et al 48. The settings on record: ref Wahlberg et al 48; cited from earlier work.
In another data set the target is tankyrase. The settings on record: read-out: reported IC50 values for tankyrase inhibition; various assays; cited from earlier work.
In data set [4] the test system is Wnt1 (int-1) mammary tumors. Put plainly: Wnt1 subcutaneous mammary tumor model. To be noted: E6201 40 mg/kg i.v. Q4Dx3; for tumor growth, single agent: E7449 100 mg/kg once daily, Wnt-C59 10 mg/kg once daily. As to the method:
(§3) All studies were performed according to IACUC approved protocols. The general health of mice was monitored daily. Tumor volume was determined by caliper measurements (mm), using the formula (l x w^2)/2 = mm^3, where l and w refer to the larger and smaller perpendicular dimensions collected at each measurement. Tumor dimensions were recorded twice per week starting when tumors reached an approximate size of 100 to 150 mm^3. Body weights were recorded twice per week and relative body weight was calculated as follows: Relative body weight = (body weight on day of measurement/body weight on first day of treatment).
Tumor pieces cut to approximately 2 mm^3 in size were injected subcutaneously in female nude mice. Treatment was initiated approximately 9–10 days post-implantation of mice.

A further data set concerns Wnt1 model tumors. Put plainly: Gene expression of Wnt-related genes in Wnt1 model tumors (mouse TLDA). The format is in vivo. The settings on record: 7 days of drug treatment. The method, then: as §2
The subject of the next data set is TNKS1. The settings on record: read-out: reported IC50, TNKS1; cited from earlier work.
For a further data set, the system named is PARP2. The settings on record: read-out: reported IC50, PARP2; cited from earlier work.
The subject of a further data set is wild type DT40 cells. Put plainly: cells. The settings on record: DT40, 48 h, read-out: IC50, cell proliferation, wild type DT40 cells.
In data set [5] the test system is DNA repair mutant DT40 cell lines. Put plainly: Proliferation assay in panel of isogenic DNA repair mutant DT40 cell lines (XTT). To be noted: versus wild type DT40. The format is cell-based, avian. On the technique in general: Tetrazolium dyes change colour on reduction, which living cells bring about.
For data set [6] the following is noted: cited from earlier work.
Data set [7] has as its system MX-1 human breast cancer xenografts. It is filed as in vivo. The settings on record: E7449 100 mg/kg oral once daily; carboplatin single i.v. dose 60 mg/kg. As to the method: as §3
Carboplatin combination in MX-1 orthotopic xenografts: female nude mice were implanted with MX-1 cells (0.5 × 10^6) in the thoracic mammary fat pad. Treatment started on day 3 when the average tumor size was approximately 50 mm^3. Carboplatin was administered as a single intravenous dose at 60 mg/kg on day 3 or 4.

pIC50: −log10 of the molar value. “Also recorded” adds a separate entry of the source.

Description for wild type DT40 cells: Proliferation assays were performed in a panel of 32 isogenic DT40 cell lines, in which each line was deficient in a distinct DNA repair gene [31]. Cells were seeded and incubated with test compound at various concentrations for 2–3 days (~ 8 cell cycles). […] Each experiment was conducted in duplicate and a minimum of 3 separate experiments were performed. […] For proliferation assays cells were plated at low density in 96 well plates. […] Cell growth was assessed using the CellTiter-Glo® cell viability assay (Promega, Cat# G7573). Each experiment was conducted in duplicate and a minimum of 3 separate experiments were performed.

With `Cn1nnc2c(C(N)=O)ncn2c1=O` [TMZ, temozolomide, reference compound], in data set [1], the “growth of subcutaneous tumors, single agent” value is reported as “moderately inhibited”.

In the case of `Oc1nc(-c2ccc(C(F)(F)F)cc2)nc2c1CSCC2` [XAV939], in the data set with SW480 cells [2], the “Cyclin D1 protein levels” value was “modest decrease”, the axin2 protein level entry was “Increased axin2”, the “reduction of active (non-phosphorylated) β-catenin level” value is on record as ~ 90% and the “reduction of total β-catenin level” value was ~75%. Also, in the data set on SW480 cells [3], the “expression of 6 E7449-responsive genes (NOS3, LGR5, LEF1, NKD1, CYR61, MMP7)” value was “altered expression of these 6 genes in the same direction”. Also, the “effect on levels of β-catenin” value with DLD-1 cells is reported as “robust effect on levels of β-catenin was not observed”.

In the case of `C[C@]1(c2nc3c(C(N)=O)cccc3[nH]2)CCCN1` [veliparib], the “binding to TNKS1/2 catalytic domain” value with TNKS1/2 was “no significant binding”. In addition, the pIC50 at tankyrase was […].

With `NC(=O)c1cccc2cn(-c3ccc([C@@H]4CCCNC4)cc3)nc12` [niraparib], the pIC50 on tankyrase is 6.22.

As for `CCNc1cc(O)c2c(c1)/C=C/C[C@H](O)[C@H](O)C(=O)/C=C\[C@@H](C)[C@H](C)OC2=O` [E6201, reference compound], the decreased body weight in [4] (recovered post-treatment) is < 10%. Moreover, the “tumor growth, single agent” value in data set [4] was “No antitumor activity”.

As to `CNCc1ccc(-c2[nH]c3cc(F)cc4c3c2CCNC4=O)cc1` [rucaparib], in the data set with TNKS1/2, the “binding to TNKS1/2 catalytic domain” value is “binding to the catalytic domain of multiple PARP family members including tankyrases”.

For `Cc1cc(-c2ccc(CC(=O)Nc3ccc(-c4cccnc4)cc3)cc2)ccn1` [Wnt-C59, reference compound], the “tumor growth, single agent” value in data set [4] was “significant antitumor activity; also recorded: significantly inhibited tumor growth”. Moreover, the “expression of Wnt-related genes CAR2, FZD9, LEF1, VIL1 in tumors” value in the data set on Wnt1 model tumors is listed as “significant alteration”.

As to `O=C(c1cc(Cc2n[nH]c(=O)c3ccccc23)ccc1F)N1CCN(C(=O)C2CC2)CC1` [olaparib], the pIC50 with TNKS1 was […]; with PARP2 it was […]; with wild type DT40 cells, 5.68; on tankyrase, […]. In the data set on SW480 cells [2], the “Cyclin D1 protein levels” value is “unaffected”. Besides, the axin2 protein level result in the data set with SW480 cells [2] was “remained at basal levels”. For the same compound, the β-catenin protein levels entry in the data set on SW480 cells [2] was “remained unchanged”. The “expression of 6 E7449-responsive genes (NOS3, LGR5, LEF1, NKD1, CYR61, MMP7)” value with SW480 cells [3] was “no effect or altered expression in the opposite direction”. The “binding to TNKS1/2 catalytic domain” value in the data set on TNKS1/2 is given as “no significant binding”. Further, the “sensitivity of DT40 cells lacking PARP expression” value in data set [5] is recorded as “A similar observation”.

For `CS(=O)(=O)c1ccc(-c2nnc(/C=C/c3nnc(-c4ccc(C#N)cc4)o3)n2-c2ccccc2Cl)nc1` [G007-LK], the “single agent antitumor activity” value in data set [6] is “inhibit tumor growth as a single agent in certain models”. For the same compound, in data set [6] (in vivo), the therapeutic window result is reported as “very narrow therapeutic window because of intestinal toxicity”.

`N.N.O=C([O-])C1(C(=O)[O-])CCC1.[Pt+2]` [carboplatin, reference compound]: in data set [7], the “antitumor activity, single agent” value is recorded as “modest, but statistically significant versus vehicle; also recorded: only modest antitumor activity”.
